Test results from patent publication US20230085307A1, “PYRIDAZINONE COMPOUND AND HERBICIDE” (NISSAN CHEMICAL CORPORATION, priority 2019, published 2023).

Experiments:
[1] = tested on: late watergrass; experiment: Test Example 1: herbicidal activity, application before weed generation under submerged conditions (Table 16, symbol A); assay type: in vivo, late watergrass (Echinochloa oryzicola); settings: 320 g/ha applied herbicide
In short: (§1)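 Submerged Wagner pots (alluvial soil, 4 cm water) sown with weed seeds and planted with 2.5-leaf rice seedlings; emulsifiable concentrate diluted in water applied to water surface on sowing day. Held in greenhouse at 25-30 °C; injury scored 0-5 by herbicidal rate after three weeks.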

[2] = tested on: Japanese bulrush; experiment: Test Example 1: herbicidal activity, application before weed generation under submerged conditions (Table 16, symbol B); assay type: in vivo, Japanese bulrush (Schoenoplectus juncoides); settings: 320 g/ha applied herbicide
In short: as §1

[3] = tested on: oval-leafed pondweed; experiment: Test Example 1: herbicidal activity, application before weed generation under submerged conditions (Table 16, symbol C); assay type: in vivo, oval-leafed pondweed (Monochoria vaginalis); settings: 320 g/ha applied herbicide
In short: as §1

[4] = tested on: barnyard grass; experiment: Test Example 3: herbicidal effect by foliage application, Wagner pot (Table 18, symbol H); assay type: in vivo, barnyard grass (Echinochloa crus-galli); settings: 320 g/ha
In short: (§2)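 Plants were sown in alluvial soil held under 0.1–0.5 cm standing water and grown 14 days in a greenhouse at 25–30 °C. An emulsifiable formulation, water-diluted to the set dose, was then sprayed onto the foliage, and effects were scored three weeks later using previously defined criteria.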

[5] = tested on: Chinese sprangletop; experiment: Test Example 3: herbicidal effect by foliage application, Wagner pot (Table 18, symbol D); assay type: in vivo, chinese sprangletop (Leptochloa chinensis); settings: 320 g/ha
In short: as §2

[6] = tested on: rice flat sedge; experiment: Test Example 3: herbicidal effect by foliage application, Wagner pot (Table 18, symbol E); assay type: in vivo, rice flat sedge (Cyperus iria); settings: 320 g/ha
In short: as §2

[7] = tested on: southern crabgrass; experiment: Test Example 4: herbicidal effect by soil treatment (Table 19, symbol F); assay type: in vivo, southern crabgrass (Digitaria ciliaris); settings: amount of applied herbicide 320 g/ha
In short: (§3)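 Pre-emergence style soil spray: seeds under ~1.5 cm sterilized diluvial soil received a uniform coat of emulsion diluted to the predetermined herbicide amount. Greenhouse 25–30° C; readout at week three on previously defined criteria.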

[8] = tested on: green foxtail; experiment: Test Example 4: herbicidal effect by soil treatment (Table 19, symbol G); assay type: in vivo, green foxtail (Setaria viridis); settings: amount of applied herbicide 320 g/ha
In short: as §3

[9] = tested on: barnyard grass; experiment: Test Example 4: herbicidal effect by soil treatment (Table 19, symbol H); assay type: in vivo, barnyard grass (Echinochloa crus-galli); settings: amount of applied herbicide 320 g/ha
In short: as §3

[10] = tested on: wild oat; experiment: Test Example 4: herbicidal effect by soil treatment (Table 19, symbol I); assay type: in vivo, wild oat (Avena fatua); settings: amount of applied herbicide 320 g/ha
In short: as §3

[11] = tested on: blackgrass; experiment: Test Example 4: herbicidal effect by soil treatment (Table 19, symbol J); assay type: in vivo, blackgrass (Alopecurus myosuroides); settings: amount of applied herbicide 320 g/ha
In short: as §3

[12] = tested on: Italian ryegrass; experiment: Test Example 4: herbicidal effect by soil treatment (Table 19, symbol K); assay type: in vivo, Italian ryegrass (Lolium multiflorum); settings: amount of applied herbicide 320 g/ha
In short: as §3

[13] = tested on: windgrass; experiment: Test Example 4: herbicidal effect by soil treatment (Table 19, symbol L); assay type: in vivo, windgrass (Apera spica-venti); settings: amount of applied herbicide 320 g/ha
In short: as §3

[14] = tested on: velvetleaf; experiment: Test Example 4: herbicidal effect by soil treatment (Table 19, symbol M); assay type: in vivo, velvetleaf (Abutilon theophrasti); settings: amount of applied herbicide 320 g/ha
In short: as §3

[15] = tested on: redroot pigweed; experiment: Test Example 4: herbicidal effect by soil treatment (Table 19, symbol N); assay type: in vivo, redroot pigweed (Amaranthus retroflexus); settings: amount of applied herbicide 320 g/ha
In short: as §3

[16] = tested on: lambsquarters; experiment: Test Example 4: herbicidal effect by soil treatment (Table 19, symbol O); assay type: in vivo, lambsquarters (Chenopodium album); settings: amount of applied herbicide 320 g/ha
In short: as §3

[17] = tested on: chickweed; experiment: Test Example 4: herbicidal effect by soil treatment (Table 19, symbol P); assay type: in vivo, common chickweed (Stellaria media); settings: amount of applied herbicide 320 g/ha
In short: as §3

[18] = tested on: false cleavers; experiment: Test Example 4: herbicidal effect by soil treatment (Table 19, symbol Q); assay type: in vivo, false cleavers (Galium spurium); settings: amount of applied herbicide 320 g/ha
In short: as §3

[19] = tested on: persian speedwell; experiment: Test Example 4: herbicidal effect by soil treatment (Table 19, symbol R); assay type: in vivo, Persian speedwell (Veronica persica); settings: amount of applied herbicide 320 g/ha
In short: as §3

[20] = tested on: southern crabgrass; experiment: Test Example 5: herbicidal effect by foliage application, plastic box (Table 20, symbol F); assay type: in vivo, southern crabgrass (Digitaria ciliaris); settings: foliage application, 320 g/ha, three weeks after application
In short: (§4)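 Plants were sown into sterilized diluvial soil under about 1.5 cm cover and kept in a greenhouse at 25° C. to 30° C. Fourteen days on, foliage received an even spray of the diluted emulsion. Herbicidal or crop effect was judged three weeks afterwards.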

[21] = tested on: green foxtail; experiment: Test Example 5: herbicidal effect by foliage application, plastic box (Table 20, symbol G); assay type: in vivo, green foxtail (Setaria viridis); settings: foliage application, 320 g/ha, three weeks after application
In short: as §4

[22] = tested on: barnyard grass; experiment: Test Example 5: herbicidal effect by foliage application, plastic box (Table 20, symbol H); assay type: in vivo, barnyard grass (Echinochloa crus-galli); settings: foliage application, 320 g/ha, three weeks after application
In short: as §4

[23] = tested on: wild oat; experiment: Test Example 5: herbicidal effect by foliage application, plastic box (Table 20, symbol I); assay type: in vivo, wild oat (Avena fatua); settings: foliage application, 320 g/ha, three weeks after application
In short: as §4

[24] = tested on: blackgrass; experiment: Test Example 5: herbicidal effect by foliage application, plastic box (Table 20, symbol J); assay type: in vivo, blackgrass (Alopecurus myosuroides); settings: foliage application, 320 g/ha, three weeks after application
In short: as §4

[25] = tested on: Italian ryegrass; experiment: Test Example 5: herbicidal effect by foliage application, plastic box (Table 20, symbol K); assay type: in vivo, Italian ryegrass (Lolium multiflorum); settings: foliage application, 320 g/ha, three weeks after application
In short: as §4

[26] = tested on: windgrass; experiment: Test Example 5: herbicidal effect by foliage application, plastic box (Table 20, symbol L); assay type: in vivo, windgrass (Apera spica-venti); settings: foliage application, 320 g/ha, three weeks after application
In short: as §4

[27] = tested on: velvetleaf; experiment: Test Example 5: herbicidal effect by foliage application, plastic box (Table 20, symbol M); assay type: in vivo, velvetleaf (Abutilon theophrasti); settings: foliage application, 320 g/ha, three weeks after application
In short: as §4

[28] = tested on: redroot pigweed; experiment: Test Example 5: herbicidal effect by foliage application, plastic box (Table 20, symbol N); assay type: in vivo, redroot pigweed (Amaranthus retroflexus); settings: foliage application, 320 g/ha, three weeks after application
In short: as §4

[29] = tested on: lambsquarters; experiment: Test Example 5: herbicidal effect by foliage application, plastic box (Table 20, symbol O); assay type: in vivo, lambsquarters (Chenopodium album); settings: foliage application, 320 g/ha, three weeks after application
In short: as §4

[30] = tested on: chickweed; experiment: Test Example 5: herbicidal effect by foliage application, plastic box (Table 20, symbol P); assay type: in vivo, common chickweed (Stellaria media); settings: foliage application, 320 g/ha, three weeks after application
In short: as §4

[31] = tested on: false cleavers; experiment: Test Example 5: herbicidal effect by foliage application, plastic box (Table 20, symbol Q); assay type: in vivo, false cleavers (Galium spurium); settings: foliage application, 320 g/ha, three weeks after application
In short: as §4

[32] = tested on: persian speedwell; experiment: Test Example 5: herbicidal effect by foliage application, plastic box (Table 20, symbol R); assay type: in vivo, Persian speedwell (Veronica persica); settings: foliage application, 320 g/ha, three weeks after application
In short: as §4

Cc1ccc(-c2sc3ccccc3c2-c2c(O)c(C)nn(C)c2=O)cc1C [1-065]
Herbicidal effect on A: late watergrass (grade 0-5) [1]: 3 (Herbicidal rate of 40% or more and less than 70%)
Herbicidal effect on B: Japanese bulrush (grade 0-5) [2]: 0 (Herbicidal rate of 5% or less (almost no effect))
Herbicidal effect on C: oval-leafed pondweed (grade 0-5) [3]: 0 (Herbicidal rate of 5% or less (almost no effect))
herbicidal effect on H (barnyard grass), rating 0-5 [4]: 3 (Herbicidal rate of 40% or more and less than 70%)
herbicidal effect on D (Chinese sprangletop), rating 0-5 [5]: 3 (Herbicidal rate of 40% or more and less than 70%)
herbicidal effect on E (rice flat sedge), rating 0-5 [6]: 5 (Herbicidal rate of 90% or more (almost completely withered))
herbicidal effect rating, F: southern crabgrass [7]: 0 (Herbicidal rate of 5% or less (almost no effect))
herbicidal effect rating, G: green foxtail [8]: 0 (Herbicidal rate of 5% or less (almost no effect))
herbicidal effect rating, H: barnyard grass [9]: 0 (Herbicidal rate of 5% or less (almost no effect))
herbicidal effect rating, I: wild oat [10]: 0 (Herbicidal rate of 5% or less (almost no effect))
herbicidal effect rating, J: blackgrass [11]: 0 (Herbicidal rate of 5% or less (almost no effect))
herbicidal effect rating, K: Italian ryegrass [12]: 0 (Herbicidal rate of 5% or less (almost no effect))
herbicidal effect rating, L: windgrass [13]: 0 (Herbicidal rate of 5% or less (almost no effect))
herbicidal effect rating, M: velvetleaf [14]: 0 (Herbicidal rate of 5% or less (almost no effect))
herbicidal effect rating, N: redroot pigweed [15]: 0 (Herbicidal rate of 5% or less (almost no effect))
herbicidal effect rating, O: lambsquarters [16]: 0 (Herbicidal rate of 5% or less (almost no effect))
herbicidal effect rating, P: chickweed [17]: 3 (Herbicidal rate of 40% or more and less than 70%)
herbicidal effect rating, Q: false cleavers [18]: 0 (Herbicidal rate of 5% or less (almost no effect))
herbicidal effect rating, R: persian speedwell [19]: 4 (Herbicidal rate of 70% or more and less than 90%)
herbicidal effect grade, F: southern crabgrass [20]: 3 (Herbicidal rate of 40% or more and less than 70%)
herbicidal effect grade, G: green foxtail [21]: 3 (Herbicidal rate of 40% or more and less than 70%)
herbicidal effect grade, H: barnyard grass [22]: 3 (Herbicidal rate of 40% or more and less than 70%)
herbicidal effect grade, I: wild oat [23]: 0 (Herbicidal rate of 5% or less (almost no effect))
herbicidal effect grade, J: blackgrass [24]: 0 (Herbicidal rate of 5% or less (almost no effect))
herbicidal effect grade, K: Italian ryegrass [25]: 2 (Herbicidal rate of 20% or more and less than 40%)
herbicidal effect grade, L: windgrass [26]: 0 (Herbicidal rate of 5% or less (almost no effect))
herbicidal effect grade, M: velvetleaf [27]: 5 (Herbicidal rate of 90% or more (almost completely withered))
herbicidal effect grade, N: redroot pigweed [28]: 3 (Herbicidal rate of 40% or more and less than 70%)
herbicidal effect grade, O: lambsquarters [29]: 3 (Herbicidal rate of 40% or more and less than 70%)
herbicidal effect grade, P: chickweed [30]: 5 (Herbicidal rate of 90% or more (almost completely withered))
herbicidal effect grade, Q: false cleavers [31]: 3 (Herbicidal rate of 40% or more and less than 70%)
herbicidal effect grade, R: persian speedwell [32]: 5 (Herbicidal rate of 90% or more (almost completely withered))
